Several values for one entry are separate records, joined by “and”; a condition that tells them apart may be missing. Equal entries are not always repeated. Blank lines part the entries; values can stand above or below the compound they belong to.
Experiments:
[1] = tested on: 3 ovarium cancer lines (IGROV-1, OVC-3, and OVC-8); assay: Cytotoxicity, range over 3 ovarium cancer lines; format: cell-based; settings: IGROV-1, OVC-3, OVC-8
Method: (§1) OVCAR-3 (OVC-3) and OVCAR-8 (OVC-8) ovarian serous adenocarcinomas, IGROV-1 ovarian endometrioid adenocarcinoma, OVCAR-5 (OVC-5) upper gastrointestinal carcinoma, MDA-MB-231 breast adenocarcinoma, and MCF-7 and T-47D invasive breast carcinomas were purchased from the Developmental Therapeutic Program of the National Cancer Institute (NIH, USA) and were cultured in an RPMI medium (Thermo Fisher). Mes-Sa and Mes-Sa/Dx5 uterine sarcoma cell lines were purchased from American Type Culture Collection (ATCC) and were kept in DMEM (Thermo Fisher). Mes-Sa B1 was transfected with the human MDR1 gene, and Mes-Sa mCherry, Mes-Sa B1 mOrange, and Mes-Sa/Dx5 eGFP were engineered to stably express the respective fluorescent proteins previously.[51] Culture media for cancer cells were supplemented with 10% fetal bovine serum, 2 mM L-glutamine, and 100 units/mL penicillin and 100 μg/mL streptomycin (Thermo Fisher). The adipose tissue and bone marrow-derived mesenchymal stem cells (AD-MSC and BM-MSC) were described previously[37] and were kept in DMEM-F12 (Gibco) supplemented with 10% fetal bovine serum, L-glutamine (Thermo Fisher), 0.1% gentamicin (Gibco, 50 mg/mL), and 16 ng/mL fibroblast growth factor 2 (Peprotech). Cells were kept at 37 °C under 5% CO2 and were negative for mycoplasma infection.
(§2) Cytotoxicities of the nonfluorescent cancer cells were assessed with a PrestoBlue cell viability reagent (Thermo Fisher). Briefly, 2500 cells/well were seeded on 384-well plates; then, the next-day drugs were added. After 72 h of incubation, PrestoBlue was added in a 10% final concentration, and after an hour of additional incubation, plates were measured with a PerkinElmer EnSpire plate reader at 555 nm/585 nm excitation/emission wavelengths. Stem cells were seeded on 96-well plates at a density of 5000 cells/well, and the following day, drugs were added for 96 h of incubation; then, viability was assessed with 10% PrestoBlue diluted in PBS. Fluorescent cancer cells were admixed before seeding on 384-well plates at an 800 cells/well density each, thus altogether 2400 cells/well. Drugs were added the following day, and the intensity of the fluorescent proteins was measured after 144 h of incubation at the respective fluorescent channels (excitation/emission, eGFP: 485 nm/510 nm; mCherry: 585 nm/610 nm; mOrange: 545 nm/567 nm). pIC50 values were calculated by a custom program written by Judit Sessler in C#. IC50 values and standard deviation were calculated from average pIC50 values from at least 3 independent measurements.

[2] = tested on: MSCs; assay: Cytotoxicity, range over MSCs; format: cell-based; settings: AD-MSC, BM-MSC, immortalized BM-MSC
Method: as §1
(§3) Cytotoxicities of the nonfluorescent cancer cells were assessed with a PrestoBlue cell viability reagent (Thermo Fisher). Briefly, 2500 cells/well were seeded on 384-well plates; then, the next-day drugs were added. After 72 h of incubation, PrestoBlue was added in a 10% final concentration, and after an hour of additional incubation, plates were measured with a PerkinElmer EnSpire plate reader at 555 nm/585 nm excitation/emission wavelengths. Stem cells were seeded on 96-well plates at a density of 5000 cells/well, and the following day, drugs were added for 96 h of incubation; then, viability was assessed with 10% PrestoBlue diluted in PBS. […] IC50 values and standard deviation were calculated from average pIC50 values from at least 3 independent measurements.

[3] = Stability in serum-free culture medium by HPLC-UV; format: physicochemical; settings: for AUC (HPLC-UV), single measurements 1-5 / AUC (HPLC-UV), average: serum-free culture medium
Method: Stability of the metal complexes in solution was measured in serum-free culture medium. The compounds were dissolved in DMSO right before the experiment. Solutions of Cu-LA and Ag-LA contained 1% final volume of DMSO, while Au-LA contained 30% DMSO. Samples were taken right after dilution, and after 1 h, 2 h, 4 h, 8 h, 16 h, 32 and 48 h, and measured by HPLC-UV.

[4] = tested on: Mes-Sa B1; assay: Cytotoxicity, MDR1-transfected uterine sarcoma line; format: cell-based; settings: Mes-Sa B1 (MDR1 transfected, ABCB1 expressing), fluorescent protein intensity after 144 h
Method: as §1, §2

[5] = tested on: Mes-Sa; assay: H2DCFDA intracellular ROS production assay; format: cell-based; settings: 50 μM, 4 h incubation
Method: (§4) To assess intracellular ROS production, we used a H2DCFDA cellular ROS assay kit (ab113851, Abcam) according to the manufacturer’s instructions. Briefly, 20,000 cells were seeded on 96-well plates. On the following day, cells were washed, and H2DCFDA solution, prepared by avoiding direct light, was added for 45 min. Next, cells were washed, and 50 μM samples of test compounds were aspirated on the cells in a complete and phenol red-free medium (FluoroBrite, Thermo Fisher). At each hour, fluorescence of 2′,7′-dichlorofluorescein (DCF) was measured at 484 nm/535 nm excitation/emission wavelengths. Values were normalized to 0 h measurements. Values indicate at least 3 independent measurements.

[6] = tested on: T-47D; assay: Cytotoxicity (PrestoBlue), breast cancer line; format: cell-based; settings: 72 h incubation
Method: as §1, §2

[7] = tested on: MCF-7; assay: Cytotoxicity (PrestoBlue), breast cancer line; format: cell-based
Method: as §1, §2

[8] = tested on: MDA-MB-231; assay: Cytotoxicity (PrestoBlue), breast cancer line; format: cell-based; settings: MDA-MB-231, 72 h incubation
Method: as §1, §2

[9] = tested on: cancer lines; assay: Cytotoxicity, range over cancer lines; format: cell-based; settings: all cancer lines tested; read-out: IC50 range over cancer lines
Method: as §1, §3

[10] = tested on: OVC-5; assay: Cytotoxicity (PrestoBlue), upper gastrointestinal cancer line; format: cell-based; settings: for IC50: OVC-5, 72 h incubation, PrestoBlue
Method: as §1, §2

[11] = tested on: Mes-Sa/Dx5; assay: Cytotoxicity, doxorubicin-selected MDR uterine sarcoma line; format: cell-based; settings: Mes-Sa/Dx5 (doxorubicin selected, ABCB1 expressing), fluorescent protein intensity after 144 h
Method: as §1, §2

[12] = tested on: OVC-3; assay: Cytotoxicity (PrestoBlue), ovarian cancer line; format: cell-based; settings: OVC-3, 72 h incubation
Method: as §1, §2

[13] = tested on: IGROV-1; assay: Cytotoxicity (PrestoBlue), ovarian cancer line; format: cell-based; settings: IGROV-1, 72 h incubation
Method: as §1, §2

[14] = tested on: OVC-8; assay: Cytotoxicity (PrestoBlue), ovarian cancer line; format: cell-based; settings: OVC-8, 72 h incubation
Method: as §1, §2

[15] = tested on: BM-MSC; assay: Cytotoxicity (PrestoBlue), bone marrow-derived mesenchymal stem cells; format: cell-based; settings: 96 h incubation
Method: as §1, §2

[16] = tested on: Bone marrow MSCs (BM-MSC); assay: Cytotoxicity, range over bone marrow MSCs; format: cell-based; settings: BM-MSC and immortalized BM-MSC
Method: as §1, §2

[17] = tested on: 3 breast cancer cell lines (MDA-MB-231, MCF-7 and T-47D); assay: Cytotoxicity, range over 3 breast cancer cell lines; format: cell-based; settings: MDA-MB-231, MCF-7, T-47D
Method: as §1, §2

[18] = tested on: AD-MSC; assay: Cytotoxicity (PrestoBlue), adipose-derived mesenchymal stem cells; format: cell-based; settings: 96 h incubation
Method: as §1, §2

[19] = tested on: Mes-Sa; assay: Cytotoxicity, uterine sarcoma parental line; format: cell-based; settings: fluorescent protein intensity after 144 h
Method: as §1, §2

[20] = tested on: im. BM-MSC; assay: Cytotoxicity (PrestoBlue), immortalized bone marrow MSC; format: cell-based; settings: 96 h incubation
Method: as §1, §2

[21] = tested on: HL-60 leukemia line; design: method as in PMID 34808062; settings: cited from earlier work
[22] = tested on: T-47D; assay: H2DCFDA intracellular ROS production assay; format: cell-based; settings: 50 μM, 4 h incubation
Method: as §4

[23] = tested on: MCF-7; assay: H2DCFDA intracellular ROS production assay; format: cell-based; settings: MCF-7, 50 μM, 4 h incubation
Method: as §4

[24] = tested on: panel of cancer cell lines of various origins; design: method as in PMID 12932133; settings: up to 10 μg/mL (approximately 60 μM for lepidiline A); cited from earlier work
[25] = tested on: MCF-7 breast cancer line; design: method as in PMID 34808062; settings: cited from earlier work

- AUC (HPLC-UV), single measurements 1-5 ([3]; 0 h): 700 and 697 and 698
- AUC (HPLC-UV), average ([3]; 0 h, Cu-LA, Ag-LA 1% DMSO, Au-LA 30% DMSO): 698
- AUC (HPLC-UV), average ([3]; 1 h): 677
- AUC (HPLC-UV), single measurements 1-5 ([3]; 1 h): 690 and 685 and 674 and 672 and 665
- AUC (HPLC-UV), average ([3]; 2 h): 643
- AUC (HPLC-UV), single measurements 1-5 ([3]; 2 h): 645 and 644 and 640 and 643
- AUC (HPLC-UV), average ([3]; 4 h): 606
- AUC (HPLC-UV), single measurements 1-5 ([3]; 4 h): 614 and 605 and 604 and 603
- AUC (HPLC-UV), average ([3]; 8 h): 456
- AUC (HPLC-UV), single measurements 1-5 ([3]; 8 h): 463 and 457 and 456 and 454 and 451
- AUC (HPLC-UV), average ([3]; 16 h): 351
- AUC (HPLC-UV), single measurements 1-5 ([3]; 16 h): 354 and 351 and 353 and 350 and 345
- AUC (HPLC-UV), average ([3]; 32 h): 177
- AUC (HPLC-UV), single measurements 1-5 ([3]; 32 h): 180 and 173 and 174 and 172 and 187
- AUC (HPLC-UV), average ([3]; 48 h): 141
- AUC (HPLC-UV), single measurements 1-5 ([3]; 48 h): 142 and 143 and 140 and 135
- Stability in serum-free culture medium ([3]; HPLC-UV, observed 48 h): decreased after 4 h
SMILES: Cc1c(C)n(Cc2ccccc2)[c](=[Au][Cl])n1Cc1ccccc1 [Au-LA, Chloro-(1,3-dibenzyl-4,5-dimethyl-imidazol-2-ylidene)gold]
- IC50 [1]: 10.5 to 17.4 µM
- IC50 [2]: 5.7 to 7.5 µM
- IC50 [4]: 12.8 µM
- More ROS compared to the medium [5]: ~50%
- IC50 [6]: 7.71 µM
- IC50 ([7]; MCF-7, 72 h incubation): 9.49 µM
- IC50 [8]: 9.58 µM
- IC50 [9]: 7.7 to 24.8 µM
- IC50 [10]: 24.8 µM
- IC50 [11]: 13.4 µM
- IC50 [12]: 16.6 µM
- IC50 [13]: 10.5 µM
- IC50 [14]: 12.7 µM
- IC50 [15]: 7.54 µM
- IC50 [16]: 5.7 to 15.7 µM
- IC50 [17]: 5.8 to 12 µM
- IC50 [18]: 5.69 µM
- IC50 [19]: 9.09 µM
- IC50 [20]: 5.7 µM

SMILES: Cc1c(C)[n+](Cc2ccccc2)cn1Cc1ccccc1.[Cl-] [LA, 1,3-Dibenzyl-4,5-dimethyl-imidazol-1-ium-chloride]
- IC50 [21]: ~30 µM
- IC50 ([1]; Homo sapiens): 48.1 to 72.9 µM
- IC50 ([4]; Homo sapiens): > 200 µM
- Intracellular ROS production compared to the medium [22]: did not provoke extra ROS production
- Intracellular ROS production compared to the medium [23]: did not provoke extra ROS production
- Intracellular ROS production compared to the medium [5]: did not provoke extra ROS production
- IC50 ([6]; Homo sapiens, T47D): 16.1 µM
- IC50 ([7]; Homo sapiens, MCF7, MCF-7, 72 h incubation): 71.7 µM
- IC50 ([8]; Homo sapiens): 91.8 µM
- IC50 [10]: > 200 µM
- Lower susceptibility of OVC-5 compared to the ovarian cancer lines ([10]; OVC-5 vs ovarian cancer lines): 4 fold
- IC50 ([11]; Homo sapiens, MES-SA/Dx5, 144 h): > 200 µM
- IC50 [12]: 48.1 µM
- IC50 ([13]; Homo sapiens): 59.9 µM
- IC50 [14]: 57.2 µM
- IC50 ([15]; BMMSC): 69.1 µM
- IC50 ([16]; BMMSC): 48 to 98 µM
- Toxicity against a panel of cancer cell lines [24]: low or no toxicity
- IC50 ([18]; listed as Lepidiline A): 184 µM
- IC50 ([18]; Mesenchymal stem cells, 96 h): 184 µM
- IC50 ([19]; Homo sapiens): 27.8 µM
- IC50 ([20]; BMMSC): 47.6 µM

SMILES: Cc1c(C)[n+](Cc2ccccc2)c(C)n1Cc1ccccc1 [lepidiline B, reference compound]
- IC50 [21]: 3.8 µM
- Toxicity against a panel of cancer cell lines [24]: low or no toxicity

SMILES: COc1cccc(C[n+]2cn(Cc3ccccc3)c(C)c2C)c1 [lepidiline C]
- IC50 [21]: ~30 µM
- IC50 [25]: 75 µM

— publication PMC11270681, “Synthesis and Systematic Investigation of Lepidiline A and Its Gold(I), Silver(I), and Copper(I) Complexes Using In Vitro Cancer Models and Multipotent Stem Cells” (ACS Omega, 2024)
